Data published in ChEMBL document CHEMBL3865829 (Eur J Med Chem, 2016).
Values after ≈ are worked out from the molar mass of the structure shown.

Experiments:
Mus musculus [1] = experiment: Toxicity in nude BALB/c mouse xenografted with human A549 cells assessed as body weight at 3 mg/kg, ig administered via oral gavage once daily for 9 consecutive days followed by subsequent dosing on day 13 and 14 measured on day 8 (reference value: 25.66 +/- 1.04 g); format: organism-based; conditions: in vivo
[2] = Cytotoxicity against human U87MG cells after 72 hrs by MTT assay; format: functional, cell-based, U-87MG ATCC; conditions: U-87 MG
[3] = Aqueous solubility of the compound in pH 1 simulated gastric fluid; format: ADME
Mus musculus [4] = experiment: Toxicity in nude BALB/c mouse xenografted with human A549 cells assessed as body weight at 3 mg/kg, ig administered via oral gavage once daily for 9 consecutive days followed by subsequent dosing on day 13 and 14 measured on day 4 (reference value: 24.77 +/- 0.93 g); format: organism-based; conditions: in vivo
[5] = Antitumor activity against human A549 cells xenografted in BALB/c nude mouse assessed as tumor volume at 3 mg/kg, ig administered via oral gavage once daily for 9 consecutive days followed by subsequent dosing on day 13 and 14 measured on day 4 (reference value: 419.55 +/- 104.72 mm3); format: functional
[6] = Cytotoxicity against human A549 cells after 72 hrs by MTT assay; format: functional, cell-based; conditions: A549, 72 h
Mus musculus [7] = experiment: Toxicity in nude BALB/c mouse xenografted with human A549 cells assessed as body weight at 3 mg/kg, ig administered via oral gavage once daily for 9 consecutive days followed by subsequent dosing on day 13 and 14 measured on day 15 (reference value: 27.12 +/- 1.43 g); format: organism-based; conditions: in vivo
Mus musculus [8] = experiment: Toxicity in nude BALB/c mouse xenografted with human A549 cells assessed as body weight at 3 mg/kg, ig administered via oral gavage once daily for 9 consecutive days followed by subsequent dosing on day 13 and 14 measured on day 1 (reference value: 24.38 +/- 0.76 g); format: organism-based; conditions: in vivo
[9] = Antitumor activity against human A549 cells xenografted in BALB/c nude mouse assessed as tumor growth inhibition at 3 mg/kg, ig administered via oral gavage once daily for 9 consecutive days followed by subsequent dosing on days 13 and 14 measured on day 30 relative to control; format: functional; conditions: 720 h, read-out: TGI
[10] = Antitumor activity against human A549 cells xenografted in BALB/c nude mouse assessed as tumor volume at 3 mg/kg, ig administered via oral gavage once daily for 9 consecutive days followed by subsequent dosing on day 13 and 14 measured on day 18 (reference value: 3045.91 +/- 854.27 mm3); format: functional
[11] = Antitumor activity against human A549 cells xenografted in BALB/c nude mouse assessed as tumor volume at 3 mg/kg, ig administered via oral gavage once daily for 9 consecutive days followed by subsequent dosing on day 13 and 14 measured on day 15 (reference value: 2071.51 +/- 682.84 mm3); format: functional
[12] = Antitumor activity against human A549 cells xenografted in BALB/c nude mouse assessed as tumor volume at 3 mg/kg, ig administered via oral gavage once daily for 9 consecutive days followed by subsequent dosing on day 13 and 14 measured on day 11 (reference value: 1327.66 +/- 404.92 mm3); format: functional
Mus musculus [13] = experiment: Toxicity in nude BALB/c mouse xenografted with human A549 cells assessed as body weight at 3 mg/kg, ig administered via oral gavage once daily for 9 consecutive days followed by subsequent dosing on day 13 and 14 measured on day 18 (reference value: 27.75 +/- 1.41 g); format: organism-based; conditions: in vivo
Mus musculus [14] = experiment: Toxicity in nude BALB/c mouse xenografted with human A549 cells assessed as body weight at 3 mg/kg, ig administered via oral gavage once daily for 9 consecutive days followed by subsequent dosing on day 13 and 14 measured on day 11 (reference value: 26.11 +/- 1.06 g); format: organism-based; conditions: in vivo
[15] = Antitumor activity against human A549 cells xenografted in BALB/c nude mouse assessed as tumor volume at 3 mg/kg, ig administered via oral gavage once daily for 9 consecutive days followed by subsequent dosing on day 13 and 14 measured on day 1 (reference value: 156.87 +/- 22.32 mm3); format: functional
cells = conditions: Homo sapiens, HCT-116, 72 h
[16] = Antitumor activity against human A549 cells xenografted in BALB/c nude mouse assessed as tumor volume at 3 mg/kg, ig administered via oral gavage once daily for 9 consecutive days followed by subsequent dosing on day 13 and 14 measured on day 8 (reference value: 840.07 +/- 205.19 mm3); format: functional
[17] = Antitumor activity against human Bel7404 cells xenografted in BALB/c nude mouse assessed as tumor volume at 50 mg/kg, ig administered via oral gavage once daily for 14 consecutive days measured on day 3 (reference value: 176.17 +/- 57.63 mm3); format: functional, BEL-7404
[18] = Antitumor activity against human Bel7404 cells xenografted in BALB/c nude mouse assessed as tumor volume at 50 mg/kg, ig administered via oral gavage once daily for 14 consecutive days measured on day 7 (reference value: 284.68 +/- 74.36 mm3); format: functional, BEL-7404
[19] = Antitumor activity against human Bel7404 cells xenografted in BALB/c nude mouse assessed as tumor growth inhibition at 50 mg/kg, ig administered via oral gavage once daily for 14 consecutive days measured on day 29; format: functional; conditions: BEL-7404, po, 696 h, read-out: TGI
[20] = Antitumor activity against human Bel7404 cells xenografted in BALB/c nude mouse assessed as tumor volume at 50 mg/kg, ig administered via oral gavage once daily for 14 consecutive days measured on day 10 (reference value: 425.92 +/- 102.32 mm3); format: functional, BEL-7404
[21] = Antitumor activity against human Bel7404 cells xenografted in BALB/c nude mouse assessed as tumor volume at 50 mg/kg, ig administered via oral gavage once daily for 14 consecutive days measured on day 17 (reference value: 747.40 +/- 169.75 mm3); format: functional, BEL-7404
[22] = Antitumor activity against human Bel7404 cells xenografted in BALB/c nude mouse assessed as tumor volume at 50 mg/kg, ig administered via oral gavage once daily for 14 consecutive days measured on day 14 (reference value: 589.54 +/- 162.22 mm3); format: functional, BEL-7404
[23] = Antitumor activity against human Bel7404 cells xenografted in BALB/c nude mouse assessed as tumor volume at 50 mg/kg, ig administered via oral gavage once daily for 14 consecutive days measured on day 1 (reference value: 101.62 +/- 26.48 mm3); format: functional, BEL-7404

With `COc1ncc(-c2ccc3nccc(-c4ccnnc4)c3c2)cc1NS(=O)(=O)c1ccc(F)cc1F` [OMIPALISIB] the Activity (Mus musculus [1]) was 22.98 g, the IC50 [2] was 537 nM and the solubility [3] was 200 µg/mL (≈ 396 µM). For the same compound, the Activity (Mus musculus [4]) was 24.55 g, the Activity [5] was 261.5 mm3 and the IC50 [6] was 140 nM. It also gave an Activity (Mus musculus [7]) of 20.92 g, an Activity (Mus musculus [8]) of 24.7 g and an inhibition in vivo at 3 mg/kg [9] of 65.9%. It also gave an Activity [10] of 968.24 mm3, an Activity [11] of 669.43 mm3 and an Activity [12] of 520.69 mm3. For the same compound, the Activity (Mus musculus [13]) was 22.22 g, the Activity (Mus musculus [14]) was 21.63 g and the Activity [15] was 146.36 mm3. For the same compound, the IC50 (cells) was 154 nM and the Activity [16] was 396.45 mm3.

For `CNC(=O)c1cc(Oc2ccc(NC(=O)Nc3ccc(Cl)c(C(F)(F)F)c3)cc2)ccn1` [SORAFENIB], the Activity [17] was 136.23 mm3, the Activity [18] was 206.94 mm3 and the inhibition in vivo at 50 mg/kg [19] was 43.8%. The Activity [20] was 257.88 mm3, the Activity [21] was 413.79 mm3 and the Activity [22] was 334.93 mm3. The Activity [23] was 97.11 mm3.
